Data on three compounds can be found in patent publication US20220111013A1, “COMPOUND DECREASING THE CONCENTRATION OF 2-HYDROXY-GLUTARATE” (Universität Heidelberg, priority 2019, published 2022).

“Also recorded” adds a separate entry of the source. Positions of bridges follow the written chain, without caps; N, C: chain ends. No end group written: not given here.

The subject of assay [1] is NRVCMs. As to the kind of experiment: Pro-hypertrophic effects of 2-HG on NRVCMs (cell size, ANP and BNP mRNA). The assay is classed as cell-based, rat. The conditions noted are these: 2 days. The procedure: (§1) RNA was extracted and purified from frozen mouse heart using Trizol reagent (QIAzol lysis reagent, Qiagen) following manufacturer's instructions, followed by DnaseI digestion. Nucleic acid yields were analyzed photometrically (NanoDrop ND-1000, Spectrophotometer). 1.5 μg RNA was reverse transcribed into cDNA using Superscript III Kit (Invitrogen) and oligo(dT) Primers. cDNA synthesis was followed by RNA digestion using RNase H. qRT-PCR was executed using iTaq Universal SYBR Green Supermix (Thermo Fisher Scientific) and CFX96 Touch Real-Time PCR detection system (Bio Rad) as previously described (Doehner 2014). The following primers used for cDNA relative quantification are listed below.
NRVCMs were isolated and prepared as published previously (Rangrez et al. 2013). […]
Cardiomyocytes were fixed with 4% PFA and blocked in 2.5% BSA in PBS including 0.1% Triton. […] Florescence graphs were collected with Keyence fluorescence microscope BZ-9000 at ×10 magnification (objective: CFI Plan Apochromat λ×10; Nikon) and BZ-II viewer software (Keyence, version 2.1). […] HybridCellCount module and fluorescence intensity singe-extraction mode were applied for cell size measurement.

The subject of assay [2] is NRVCMs. As to the kind of experiment: 2HG induced cardiomyocyte hypertrophy in NRVCMs with AAV6 transduction. The format is cell-based, rat. The conditions noted are these: L-2HG 2 mM, 2 days. On the procedure:
as §1
In additional experiments, NRVCMs were transduced with AAV6 vectors, either overexpressing L2HGDH or luciferase (Luc) as control at the M01=10^5 vp/cell. Three days after transduction L-2HG (Sigma-Aldrich) was applied to cell culture medium to a final concentration of 2 mM. Cells were harvested 2 days after treatment.
Cardiomyocytes were fixed with 4% PFA and blocked in 2.5% BSA in PBS including 0.1% Triton. Next NRVCMs were incubated with monoclonal mouse anti-α-actinin (1:200 in 2.5% BSA in PBS; Sigma) antibody for 1 hour at room temperature. After washing with PBS, secondary antibody conjugated to Alexa Fluor-546 (Thermo Fisher Scientific) together with nuclear stain DAPI (Sigma-Aldrich) at a dilution of 1:200 or 1:1000 respectively in 2.5% BSA in PBS were applied and incubated for 1 h. Afterwards, coverslips were mounted using FluorPreserve reagent (Merck Millipore). Florescence graphs were collected with Keyence fluorescence microscope BZ-9000 at ×10 magnification (objective: CFI Plan Apochromat λ×10; Nikon) and BZ-II viewer software (Keyence, version 2.1). 10 pictures were taken from each coverslip. BZ-II Analyzer (version 2.1) were used to process and analyze the graphs. HybridCellCount module and fluorescence intensity singe-extraction mode were applied for cell size measurement.

Assay [3] has as its system NRVCMs. The assay is described as follows: Mitochondrial membrane potential (TMRE) in NRVCMs. The assay is classed as cell-based, rat. The conditions noted are these: L-2HG treatment, live cell monitoring. The procedure: In additional experiments, […] were transduced with AAV6 vectors, either overexpressing L2HGDH or luciferase (Luc) as control at the M01=10^5 vp/cell. Three days after transduction L-2HG (Sigma-Aldrich) was applied to cell culture medium to a final concentration of 2 mM. Cells were harvested 2 days after treatment. […] were maintained in μ-Slide 8-wells, (Ibidi), suitable for live cell imaging. Cells were incubated with tetramethylrhodamine (TMRE) at 37° C. to a concentration of 50 nmol/L for 30 min. Afterwards, cells were washed with warm PBS and media was replaced with FluoroBrite DMEM (Thermo Fischer Scientific). Cells were imaged within 30 min (Ex: 549; Em: 574 nm).

Assay [4] has as its system primary rat neonatal fibroblasts. As to the kind of experiment: L-2HG on fibroblast proliferation and collagen synthesis. The assay is classed as cell-based. The conditions noted are these: disodium salt; for collagen3a1 expression: Western blot, non-treated fibroblasts as control; for fibroblast proliferation, Ki67-positive nuclei: immunocytochemistry.
Assay [5] deals with NRVCMs. The assay is described as follows: Mitochondrial membrane potential (JC-1) in NRVCMs. The assay is classed as cell-based, rat. The note with it: 2HG treatment. On the procedure:
In additional experiments, […] were transduced with AAV6 vectors, either overexpressing L2HGDH or luciferase (Luc) as control at the M01=10^5 vp/cell. Three days after transduction L-2HG (Sigma-Aldrich) was applied to cell culture medium to a final concentration of 2 mM. Cells were harvested 2 days after treatment. Similarly, JC-1 was applied to cell culture medium to a concentration of 1 μmol/L and cells were incubated at 37° C. for 30 min. After washing with warm PBS, cells were imaged in FluoroBrite DMEM (J-monomers Ex:485; Em:535/J-aggregates Ex: 530; Em:590) using a confocal microscope (LSM800, Zeiss). Mean fluorescence intensity was analysed using ImageJ.

Assay [6] deals with T1, Tet2 (Rattus norvegicus, UniProt A0ABK0LWH5).
T1 construct: nuclear extracts isolated from NRVCMs; endogenous in cells; host or cells: primary neonatal rat ventricular cardiomyocytes (NRVCMs), nuclear extract
T1 sequence (A0ABK0LWH5 1-1959): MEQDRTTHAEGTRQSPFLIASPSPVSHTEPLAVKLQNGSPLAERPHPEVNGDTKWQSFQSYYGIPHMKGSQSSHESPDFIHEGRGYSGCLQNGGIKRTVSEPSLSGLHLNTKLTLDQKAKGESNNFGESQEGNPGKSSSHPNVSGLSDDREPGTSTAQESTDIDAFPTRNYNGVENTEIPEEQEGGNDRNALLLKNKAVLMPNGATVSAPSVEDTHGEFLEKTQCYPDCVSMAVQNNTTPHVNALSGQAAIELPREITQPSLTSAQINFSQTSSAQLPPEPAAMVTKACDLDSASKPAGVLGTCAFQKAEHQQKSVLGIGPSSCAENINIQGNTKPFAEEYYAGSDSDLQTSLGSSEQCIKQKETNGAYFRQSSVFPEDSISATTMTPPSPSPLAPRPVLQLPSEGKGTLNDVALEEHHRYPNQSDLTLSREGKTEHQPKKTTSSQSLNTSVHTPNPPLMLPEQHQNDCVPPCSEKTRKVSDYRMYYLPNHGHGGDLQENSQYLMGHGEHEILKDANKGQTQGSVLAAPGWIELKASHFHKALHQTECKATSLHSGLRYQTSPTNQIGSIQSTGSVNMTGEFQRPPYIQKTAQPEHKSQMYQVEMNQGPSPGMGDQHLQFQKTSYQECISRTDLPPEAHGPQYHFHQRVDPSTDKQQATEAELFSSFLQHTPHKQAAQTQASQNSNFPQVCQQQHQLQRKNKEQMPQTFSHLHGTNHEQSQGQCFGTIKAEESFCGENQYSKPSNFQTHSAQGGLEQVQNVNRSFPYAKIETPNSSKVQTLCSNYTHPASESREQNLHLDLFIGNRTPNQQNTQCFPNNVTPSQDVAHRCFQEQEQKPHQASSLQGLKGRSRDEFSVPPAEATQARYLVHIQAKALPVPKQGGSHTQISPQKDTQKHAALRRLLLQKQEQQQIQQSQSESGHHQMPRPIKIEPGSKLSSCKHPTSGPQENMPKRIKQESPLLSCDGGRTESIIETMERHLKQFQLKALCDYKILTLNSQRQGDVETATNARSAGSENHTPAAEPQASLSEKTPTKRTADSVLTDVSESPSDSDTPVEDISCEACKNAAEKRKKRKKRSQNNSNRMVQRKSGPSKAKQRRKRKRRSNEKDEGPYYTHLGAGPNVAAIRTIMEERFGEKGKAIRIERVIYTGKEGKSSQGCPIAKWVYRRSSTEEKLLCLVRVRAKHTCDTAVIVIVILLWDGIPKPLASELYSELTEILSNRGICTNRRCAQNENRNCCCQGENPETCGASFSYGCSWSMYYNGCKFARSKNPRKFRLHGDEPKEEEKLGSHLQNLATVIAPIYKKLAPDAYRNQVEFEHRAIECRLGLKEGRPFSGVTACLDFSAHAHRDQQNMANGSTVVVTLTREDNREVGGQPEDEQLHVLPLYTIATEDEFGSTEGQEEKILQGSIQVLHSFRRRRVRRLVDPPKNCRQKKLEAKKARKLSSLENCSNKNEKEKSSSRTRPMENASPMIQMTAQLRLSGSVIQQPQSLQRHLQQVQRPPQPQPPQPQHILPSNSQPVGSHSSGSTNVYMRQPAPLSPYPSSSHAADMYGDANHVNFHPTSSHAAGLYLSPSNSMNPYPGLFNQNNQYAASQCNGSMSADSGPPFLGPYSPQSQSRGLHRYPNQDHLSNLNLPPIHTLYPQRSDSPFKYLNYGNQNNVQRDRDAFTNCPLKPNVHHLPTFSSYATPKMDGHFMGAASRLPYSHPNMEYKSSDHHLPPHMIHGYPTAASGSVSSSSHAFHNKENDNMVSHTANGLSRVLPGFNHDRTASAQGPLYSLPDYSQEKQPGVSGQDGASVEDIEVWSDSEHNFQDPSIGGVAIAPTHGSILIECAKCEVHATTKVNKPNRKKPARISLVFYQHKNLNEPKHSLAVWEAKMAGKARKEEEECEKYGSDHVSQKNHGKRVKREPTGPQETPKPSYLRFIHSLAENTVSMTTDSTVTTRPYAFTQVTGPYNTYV
As to the kind of experiment: Assessment of hydroxymethylation status of cytosine (5mC-Hydroxylase TET activity kit) after 2-HG treatment. The format is cell-based. The conditions noted are these: nuclear extracts of NRVCMs after 2-HG treatment. The procedure:
Epigenase 5mC-Hydroxylase TET Activity/Inhibition Assay Kit was employed to analyse Tet2 activity in nuclear extracts isolated from NRVCMs after 2-HG treatment. Cell fractionation was performed according to standard REAP protocol (Suzuki et al. 2010). The measurement of hydroxymethylcytosine (hmC) amount was performed according to manufacturer's instructions. 50 μg of nuclear protein was used per sample.

For assay [7], the system named is primary neonatal rat ventricular cardiomyocytes (NRVCMs). The assay is described as follows: Measurement of mitochondrial ROS production with MitoSOX in NRVCM. The format is cell-based. The conditions noted are these: ET-1 stimulation 200 μmol/l for 24 hours, compared to control. On the procedure: NRVCMs were isolated and prepared as published previously (Rangrez et al. 2013). Briefly, left ventricles from 1-2 days old Wistar rats (Charles River) were harvested and cut in pH 7.4 buffer containing 120 mmol/liter NaCl, 20 mmol/liter Hepes, 8 mmol/liter NaH2PO4, 6 mmol/liter glucose, 5 mmol/liter KCl, and 0.8 mmol/liter MgSO4. The separation of single cardiomyocyte from cut tissue mass, was achieved by enzymatic digestion with 0.6 mg/ml pancreatin (Sigma) at 37° C. and 0.5 mg/ml collagenase type 11 (Worthington). Cell suspension was filtered by a cell strainer. Newborn calf serum was added to stop enzymatic digestion. In order to separate cardiomyocytes from fibroblasts, a Percoll gradient (GE Healthcare) centrifugation step was performed. Afterwards, cardiomyocytes were cultured in DMEM medium containing 10% fetal calf serum (FCS), 2 mM penicillin/streptomycin, and L-glutamine (PAA Laboratories). […]
MitoSOX was applied to culture medium to a final concentration of 0.5 μM and cells were incubated for 15 minutes at 37° C. […] The fluorescence (red) was detected (Ex: 400 nm, Em at 590 nm) using confocal microscopy (Zeiss LSM 800). Mean fluorescence intensity (MFI) was calculated from the total fluorescence intensity detected from viable cells and divided by the number of cells using the software generated by Image J software (NIH, Bethesda, Md., USA).

Assay [8] deals with L2HGDH. As to the kind of experiment: Gene expression analysis of L2HGDH in Ang-II infusion mice model. The assay is classed as in vivo. The note with it: Ang-II infusion mice vs controls. The procedure:
as §1

Regarding `O=C([O-])CC[C@H](O)C(=O)[O-].[Na+].[Na+]` [2-HG, L-α-Hydroxyglutaric acid disodium salt], the cell size result in assay [1] (2-HG 2 mM in serum-free medium, vs non-treated cells) is “dramatic increase”; in assay [2] it was “increased”. In assay [1] (2-HG 2 mM), the “fetal gene program, ANP and BNP mRNA” value is “marked increase”. The “mRNA levels of pro-hypertrophic markers” value in assay [2] is reported as “increased”. In assay [2] (disodium salt), the “induction of hypertrophy in NRVCMs” value is “marked induction; also recorded: pro-hypertrophic”. The “TMRE fluorescence (mitochondrial membrane potential)” value in assay [3] was “time-dependent decrease”. Besides, the collagen3a1 expression result is reported as “induces” in assay [4] and “significant increased” in assay [4] (listed as L-2HG). Further, the “fibroblast proliferation, Ki67-positive nuclei” value in assay [4] was “induces”; in assay [4] (listed as L-2HG) it was “dramatic increased”. Further, the “JC-1 green/red mean fluorescence intensity (mitochondrial polarization)” value in assay [5] is “mitochondrial depolarization”. Also, in assay [6], the “epigenetic 5-hmC deposition” value is reported as “increased”.
With “ET-1: hypertrophic stimulation applied to NRVCMs in serum-free medium (CSCSSLMDKECVYFCHLDIIW; disulfide 1-15, 3-11; ends not checked; UniProt P05305 53-73, looked up)”, the “MitoSOX fluorescence level (ROS production)” value in assay [7] is on record as “significant increase”.
Turning to “Ang-II: infused to give the Ang-II infusion mice model of cardiac hypertrophy (DRVYIHPF; Angiotensin-2; UniProt P01019 25-32, looked up)”, the “down-regulation in L2HGDH mRNA level” value in assay [8] came to 35%.
